Measured values taken from PubChem BioAssay (NCI).
Values joined by “and” are separate entries in the source; they are usually repeats but may differ in a detail not shown here. Equal entries are not always repeated.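 Five concentrations, 48 hours, 96-well plates. GI50 marks 50% less growth. TGI is the concentration that stops growth completely.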

Tests used:
Assay in all cases: NCI-60 cell line screen, 48 h
ACHN renal = tested on: ACHN renal
OVCAR-5 ovarian = tested on: OVCAR-5 ovarian
HCT-15 colon = tested on: HCT-15 colon
SF-539 CNS = tested on: SF-539 CNS
EKVX NSCLC = tested on: EKVX NSCLC
DU-145 prostate = tested on: DU-145 prostate
MDA-MB-231 breast = tested on: MDA-MB-231 breast
OVCAR-8 ovarian = tested on: OVCAR-8 ovarian
BT-549 breast = tested on: BT-549 breast
NCI-H522 lung = tested on: NCI-H522 lung
SF-268 CNS = tested on: SF-268 CNS
MDA-MB-435 = tested on: MDA-MB-435
SNB-19 CNS = tested on: SNB-19 CNS
786-0 renal = tested on: 786-0 renal
SK-MEL-2 melanoma = tested on: SK-MEL-2 melanoma
TK-10 renal = tested on: TK-10 renal
A549 NSCLC = tested on: A549 NSCLC
PC-3 prostate = tested on: PC-3 prostate
NCI-H23 lung = tested on: NCI-H23 lung
NCI-H460 lung = tested on: NCI-H460 lung
SF-295 CNS = tested on: SF-295 CNS
UACC-62 melanoma = tested on: UACC-62 melanoma
SNB-75 CNS = tested on: SNB-75 CNS
SW-620 colon = tested on: SW-620 colon
SK-OV-3 ovarian = tested on: SK-OV-3 ovarian
UACC-257 melanoma = tested on: UACC-257 melanoma
UO-31 renal = tested on: UO-31 renal
SR leukemia = tested on: SR leukemia
HOP-62 NSCLC = tested on: HOP-62 NSCLC
NCI/ADR-RES ovarian = tested on: NCI/ADR-RES ovarian
MALME-3M melanoma = tested on: MALME-3M melanoma
KM12 colon = tested on: KM12 colon
SK-MEL-28 melanoma = tested on: SK-MEL-28 melanoma
SN12C renal = tested on: SN12C renal
COLO 205 colon = tested on: COLO 205 colon
HS 578T breast = tested on: HS 578T breast
HOP-92 NSCLC = tested on: HOP-92 NSCLC
OVCAR-4 ovarian = tested on: OVCAR-4 ovarian
RPMI-8226 leukemia = tested on: RPMI-8226 leukemia
IGROV1 ovarian = tested on: IGROV1 ovarian
U251 CNS = tested on: U251 CNS
MDA-N = tested on: MDA-N
OVCAR-3 ovarian = tested on: OVCAR-3 ovarian
T-47D breast = tested on: T-47D breast
NCI-H226 lung = tested on: NCI-H226 lung
M14 melanoma = tested on: M14 melanoma
MCF7 breast = tested on: MCF7 breast
K-562 leukemia = tested on: K-562 leukemia
RXF 393 renal = tested on: RXF 393 renal
CAKI-1 renal = tested on: CAKI-1 renal
SK-MEL-5 melanoma = tested on: SK-MEL-5 melanoma
LOX IMVI melanoma = tested on: LOX IMVI melanoma
M19-MEL melanoma = tested on: M19-MEL melanoma
HCT-116 colon = tested on: HCT-116 colon

**Q.** For `S=C(S)N1CCCCC1`, which GI50 (ACHN renal) is on record?
**A.** 19.6 µM and 54.3 µM

**Q.** What about the TGI (ACHN renal) of the same compound?
**A.** > 406 µM

**Q.** And the TGI (OVCAR-5 ovarian)?
**A.** > 406 µM

**Q.** And the GI50 (HCT-15 colon)?
**A.** 25.3 µM and 22.8 µM

**Q.** What about the TGI (HCT-15 colon) of the same compound?
**A.** 177 µM

**Q.** And the GI50 (SF-539 CNS)?
**A.** 32.3 µM and 22.7 µM

**Q.** What about the TGI (SF-539 CNS) of the same compound?
**A.** 83.3 µM and > 406 µM

**Q.** And the GI50 (EKVX NSCLC)?
**A.** 46.5 µM

**Q.** What about the TGI (EKVX NSCLC) of the same compound?
**A.** > 406 µM

**Q.** And the TGI (DU-145 prostate)?
**A.** > 406 µM

**Q.** What about the TGI (MDA-MB-231 breast) of the same compound?
**A.** > 406 µM

**Q.** What about the GI50 (OVCAR-8 ovarian) of the same compound?
**A.** 22.9 µM and 15.9 µM

**Q.** What about the TGI (OVCAR-8 ovarian) of the same compound?
**A.** > 406 µM

**Q.** And the TGI (BT-549 breast)?
**A.** > 406 µM

**Q.** And the GI50 (NCI-H522 lung)?
**A.** 28 µM

**Q.** And the GI50 (SF-268 CNS)?
**A.** 26 µM and 106 µM

**Q.** And the TGI (SF-268 CNS)?
**A.** > 406 µM

**Q.** What about the GI50 (MDA-MB-435) of the same compound?
**A.** 20.4 µM

**Q.** What about the TGI (MDA-MB-435) of the same compound?
**A.** 67.9 µM and > 406 µM

**Q.** And the TGI (SNB-19 CNS)?
**A.** > 406 µM

**Q.** And the GI50 (786-0 renal)?
**A.** 12.9 µM and 64.5 µM

**Q.** And the TGI (786-0 renal)?
**A.** > 406 µM

**Q.** And the GI50 (SK-MEL-2 melanoma)?
**A.** 28.2 µM and 54.1 µM

**Q.** And the TGI (SK-MEL-2 melanoma)?
**A.** 84.6 µM and 179 µM

**Q.** And the TGI (TK-10 renal)?
**A.** > 406 µM

**Q.** And the GI50 (A549 NSCLC)?
**A.** 71.6 µM

**Q.** What about the TGI (A549 NSCLC) of the same compound?
**A.** > 406 µM

**Q.** And the TGI (PC-3 prostate)?
**A.** 70.4 µM and > 406 µM

**Q.** And the GI50 (NCI-H23 lung)?
**A.** 36.6 µM

**Q.** What about the TGI (NCI-H23 lung) of the same compound?
**A.** > 406 µM

**Q.** And the TGI (NCI-H460 lung)?
**A.** 85 µM

**Q.** What about the GI50 (SF-295 CNS) of the same compound?
**A.** 34 µM and 39.3 µM

**Q.** And the TGI (SF-295 CNS)?
**A.** > 406 µM

**Q.** What about the GI50 (UACC-62 melanoma) of the same compound?
**A.** 19.8 µM

**Q.** And the TGI (UACC-62 melanoma)?
**A.** > 46.3 µM and 82.5 µM

**Q.** What about the GI50 (SNB-75 CNS) of the same compound?
**A.** 28 µM

**Q.** What about the TGI (SNB-75 CNS) of the same compound?
**A.** > 406 µM

**Q.** What about the GI50 (SW-620 colon) of the same compound?
**A.** 21.6 µM and 18.4 µM

**Q.** And the TGI (SW-620 colon)?
**A.** 66.1 µM and 63.6 µM

**Q.** What about the TGI (SK-OV-3 ovarian) of the same compound?
**A.** 353 µM

**Q.** What about the GI50 (UACC-257 melanoma) of the same compound?
**A.** 30.7 µM and 38 µM

**Q.** What about the TGI (UACC-257 melanoma) of the same compound?
**A.** > 406 µM

**Q.** And the GI50 (UO-31 renal)?
**A.** 20.9 µM

**Q.** What about the TGI (UO-31 renal) of the same compound?
**A.** 55.5 µM and 398 µM

**Q.** What about the GI50 (SR leukemia) of the same compound?
**A.** 17.5 µM and 80.7 µM

**Q.** What about the TGI (SR leukemia) of the same compound?
**A.** 67 µM and > 406 µM

**Q.** What about the GI50 (HOP-62 NSCLC) of the same compound?
**A.** 17 µM

**Q.** What about the TGI (HOP-62 NSCLC) of the same compound?
**A.** > 406 µM

**Q.** What about the GI50 (NCI/ADR-RES ovarian) of the same compound?
**A.** 20.8 µM

**Q.** What about the TGI (NCI/ADR-RES ovarian) of the same compound?
**A.** 93.5 µM and 173 µM

**Q.** And the GI50 (MALME-3M melanoma)?
**A.** 40.6 µM and 129 µM

**Q.** What about the TGI (MALME-3M melanoma) of the same compound?
**A.** 64.8 µM and > 406 µM

**Q.** What about the GI50 (KM12 colon) of the same compound?
**A.** 50.2 µM and 51.8 µM

**Q.** And the TGI (KM12 colon)?
**A.** 137 µM

**Q.** What about the GI50 (SK-MEL-28 melanoma) of the same compound?
**A.** 89 µM

**Q.** What about the TGI (SK-MEL-28 melanoma) of the same compound?
**A.** > 406 µM

**Q.** What about the GI50 (SN12C renal) of the same compound?
**A.** 89.7 µM and 49.8 µM

**Q.** And the TGI (SN12C renal)?
**A.** > 406 µM

**Q.** What about the TGI (COLO 205 colon) of the same compound?
**A.** 82.7 µM

**Q.** And the TGI (HS 578T breast)?
**A.** > 406 µM

**Q.** And the GI50 (HOP-92 NSCLC)?
**A.** 24.9 µM and 116 µM

**Q.** What about the TGI (HOP-92 NSCLC) of the same compound?
**A.** > 406 µM

**Q.** What about the GI50 (OVCAR-4 ovarian) of the same compound?
**A.** 51 µM

**Q.** What about the TGI (OVCAR-4 ovarian) of the same compound?
**A.** 295 µM

**Q.** What about the TGI (RPMI-8226 leukemia) of the same compound?
**A.** 68.3 µM and > 406 µM

**Q.** And the GI50 (IGROV1 ovarian)?
**A.** 55.2 µM and 10.5 µM

**Q.** What about the TGI (IGROV1 ovarian) of the same compound?
**A.** 100 µM

**Q.** And the GI50 (U251 CNS)?
**A.** 60.3 µM

**Q.** And the TGI (U251 CNS)?
**A.** > 406 µM

**Q.** And the GI50 (MDA-N)?
**A.** 70.4 µM

**Q.** What about the TGI (MDA-N) of the same compound?
**A.** 46.6 µM

**Q.** What about the TGI (OVCAR-3 ovarian) of the same compound?
**A.** > 406 µM

**Q.** And the GI50 (T-47D breast)?
**A.** 45.7 µM

**Q.** What about the TGI (T-47D breast) of the same compound?
**A.** 299 µM

**Q.** And the GI50 (NCI-H226 lung)?
**A.** 42.4 µM

**Q.** What about the TGI (NCI-H226 lung) of the same compound?
**A.** > 406 µM

**Q.** What about the GI50 (M14 melanoma) of the same compound?
**A.** 10.9 µM

**Q.** And the TGI (M14 melanoma)?
**A.** 85.7 µM and 29.7 µM

**Q.** What about the TGI (MCF7 breast) of the same compound?
**A.** 88.3 µM

**Q.** And the GI50 (K-562 leukemia)?
**A.** > 406 µM

**Q.** And the TGI (RXF 393 renal)?
**A.** > 406 µM

**Q.** What about the GI50 (CAKI-1 renal) of the same compound?
**A.** 19.9 µM

**Q.** What about the TGI (CAKI-1 renal) of the same compound?
**A.** 99.1 µM and > 406 µM

**Q.** What about the TGI (SK-MEL-5 melanoma) of the same compound?
**A.** 81.5 µM

**Q.** What about the GI50 (LOX IMVI melanoma) of the same compound?
**A.** 11.2 µM and 8.18 µM

**Q.** And the TGI (LOX IMVI melanoma)?
**A.** 26.6 µM and 16.3 µM

**Q.** What about the TGI (M19-MEL melanoma) of the same compound?
**A.** > 46.9 µM

**Q.** And the GI50 (HCT-116 colon)?
**A.** 12 µM

**Q.** And the TGI (HCT-116 colon)?
**A.** 26.2 µM and 45.3 µM
